“Also recorded” adds a separate entry of the source. Read-outs that look alike come from different tables or passages of the source.
Key:
[1] = Stability of prodrugs / release of parent drug in Simulated Gastric Fluid (SGF); type: in vitro ADME
Method: SGF was prepared according to the procedure described in Test Solution—USP. Thus, 0.2 g of sodium chloride and 0.32 g of purified pepsin (Sigma, derived from porcine stomach mucosa with an activity of 800 to 2500 units per mg of protein) were dissolved in 0.7 mL of hydrochloric acid and sufficient water to make 100 mL. This test solution has a pH of about 1.2 and was utilized for in-vitro studies.
The solution of the test compound in acetonitrile (10 μL of […] solution) was dissolved in 990 μL of biological fluid (SGF/SIF/Human Plasma). The resulting reaction mixtures were incubated at 37° C. At specified time intervals, aliquots (60 μL) were withdrawn and added to acetonitrile (200 μL) and mixed well by vortexing for 2 minutes. The mixture was centrifuged at 13000 rpm for 15 min at 4° C., and the supernatant analyzed by HPLC. The amounts (area percentages) of the remaining intact prodrug (if any) and the released metabolite(s) were estimated by HPLC.
This was performed by using HPLC instrument (Waters alliance), pump 2695, and PDA detector 2996 with the following chromatographic parameters: Wavelength −210 nm; Column-Waters X-Terra RP-18, 150×3.9 mm, 5 μm; Injection volume, 25 μL; Run time, 13 min. Mode of operation was linear gradient with mobile phase A: Acetonitrile and B: 0.1% TFA in water (filtered and degassed). Flow rate was 1.0 mL/min at 25° C.

[2] = system: serum thromboxane B2 (TXB2) formation; experiment: Inhibition of serum thromboxane B2 (TXB2) formation; type: in vivo, Sprague-Dawley (SD) rats; details: Rattus norvegicus, po, 168 h; SD rats, 30 mg/kg aspirin or equimolar 44.82 mg/kg, o.d., 7 days
Method: Aspirin is used as an antiplatelet agent for the treatment of cardiovascular complications. […] It is therefore possible to achieve complete suppression of platelet. TXA2 (and also TXB2) formation via chronic administration of aspirin at a dose of 30 mg/daily (Patrignani, P., et al. J. Clin. Invest. 1982, 69, 1366-1372). The antiplatelet activity of aspirin (30 mg/kg) and its prodrug I-D1-R1 (at a dose equimolar to 30 mg/kg dose of aspirin) was evaluated in Sprague-Dawley (SD) rats through estimation of serum TXB2 levels (Esser, R. et al., Br. J. Pharmacol. 2006, 144, 538-550) and the experimental results are presented in FIG. 7.
In vivo TXB2 inhibition potential of aspirin and NO-aspirin prodrugs was assessed in Sprague-Dawley (SD) rats; the serum TXB2 levels were estimated according to the reported procedure (R. Esser, R., et al., Br. J. Pharmacol. 2006, 144, 538-550). Thus, vehicle, aspirin (30 mg/kg) or aspirin prodrug I-D1-R1 (44.82 mg/kg which is equivalent to 30 mg/kg dose of aspirin) were administered orally to the overnight fasted SD rats. […] The serum TXB2 concentrations were determined by enzyme immunoassay (EIA) using commercially available TXB2 estimation kit (Cayman Chemicals, USA), according to the method described in kit information booklet.

[3] = Acute gastric ulcerogenesis activity study; details: rats, acute oral; aspirin 100 mg/kg, I-D1-R1 298.85 mg/kg, naproxen 100 mg/kg, I-D2-R1 138.67 mg/kg
Method: The animals were sacrificed after 5 h of drug administration. The stomachs of the treated animals were separated, perfused with 2% formalin (10 mL), and a large curvature was excised. The severity of the mucosal damage was assessed on the basis of the size of the observed ulcer lesions in the images captured using a stereomicroscope attached to a digital camera (Stemi 2000, Zeiss, Germany). The Image Pro Plus software (version 5.1) was used to quantify the hemorrhagic/ulcer lesions in pixels and to convert them into mm^2. The total area of lesions was calculated for each treatment group and the measure of gastric ulcers (Mean±SEM) (mm^2) was estimated (FIGS. 5 and 6).

[4] = Stability of prodrugs at RT and at 50° C. (capped vials); type: physicochemical
[5] = simulated gi fluid, 0 h, 1 µM, pH 1.2
[6] = simulated gi fluid, 5 min, 1 µM, pH 1.2
[7] = simulated gi fluid, 10 min, 1 µM, pH 1.2
[8] = simulated gi fluid, 0.5 h, 1 µM, pH 1.2
[9] = simulated gi fluid, 1 h, 1 µM, pH 1.2
[10] = simulated gi fluid, 2 h, 1 µM, pH 1.2
[11] = simulated gi fluid, 3 h, 1 µM, pH 1.2
[12] = simulated gi fluid, 1 µM, pH 1.2

COc1ccc2cc([C@H](C)C(=O)OCCCO[N+](=O)[O-])ccc2c1 [II-D2-X3, reference compound]
Prodrug Remaining (%) [1, 5]: 100.00%
Prodrug Remaining (%) [1, 6]: 100.00%
Prodrug Remaining (%) [1, 7]: 100.00%
Prodrug Remaining (%) [1, 8]: 100.00%
Prodrug Remaining (%) [1, 9]: 100.00%
Prodrug Remaining (%) [1, 10]: 100.00%
Prodrug Remaining (%) [1, 11]: 100.00%

CC(=O)Oc1ccccc1C(=O)Oc1cccc(CO[N+](=O)[O-])c1 [II-D1-X1, reference compound]
Fate of prodrug on incubation in SGF (in words) [1]: remained intact
% of Prodrug remaining (μM) [1, 5]: 100.00%
% of Prodrug remaining (μM) [1, 6]: 100.00%
% of Prodrug remaining (μM) [1, 7]: 100.00%
% of Prodrug remaining (μM) [1, 8]: 100.00%
% of Prodrug remaining (μM) [1, 9]: 100.00%
% of Prodrug remaining (μM) [1, 10]: 100.00%

CC(=O)Oc1ccccc1C(=O)O [Aspirin, aspirin, reference compound]
AUC of aspirin (released / remaining) in SGF ([1]; 1 µM, pH 1.2): 12348 µM·h
inhibition at 30 mg/kg [2]: 76%

COc1ccc2cc([C@H](C)C(=O)OCCCCO[N+](=O)[O-])ccc2c1 [II-D2-X4, reference compound]
Prodrug Remaining (%) [1, 5]: 100.00%
Prodrug Remaining (%) [1, 6]: 100.00%
Prodrug Remaining (%) [1, 7]: 100.00%
Prodrug Remaining (%) [1, 8]: 100.00%
Prodrug Remaining (%) [1, 9]: 100.00%
Prodrug Remaining (%) [1, 10]: 100.00%
Prodrug Remaining (%) [1, 11]: 100.00%

CCC(OC(=O)[C@@H](C)c1ccc2cc(OC)ccc2c1)O[N+](=O)[O-] (stereo partly drawn) [I-D2-R2, (2S)-1-(nitrooxy)propyl 2-(6-methoxynaphthalen-2-yl)propanoate]
Release of parent drug on incubation in SGF (in words) [1]: released naproxen
Prodrug Remaining (%) [1, 5]: 100%
t1/2 of prodrug in SGF [1, 12]: ~1 h
Prodrug Remaining (%) [1, 6]: 94.33%
Prodrug Remaining (%) [1, 7]: 90.43%
Prodrug Remaining (%) [1, 8]: 62.15%
Prodrug Remaining (%) [1, 9]: 51.01%
Prodrug Remaining (%) [1, 10]: 39.08%
Prodrug Remaining (%) [1, 11]: 6.77%

CCCC(OC(=O)[C@@H](C)c1ccc2cc(OC)ccc2c1)O[N+](=O)[O-] (stereo partly drawn) [I-D2-R3, (2S)-1-(nitrooxy)butyl 2-(6-methoxynaphthalen-2-yl)propanoate]
Release of parent drug on incubation in SGF (in words) [1]: released naproxen
Prodrug Remaining (%) [1, 5]: 100%
t1/2 of prodrug in SGF [1, 12]: ~2.5 h
Prodrug Remaining (%) [1, 6]: 96.35%
Prodrug Remaining (%) [1, 7]: 93.61%
Prodrug Remaining (%) [1, 8]: 82.73%
Prodrug Remaining (%) [1, 9]: 75.48%
Prodrug Remaining (%) [1, 10]: 57.55%
Prodrug Remaining (%) [1, 11]: 39.00%

COc1ccc2cc([C@H](C)C(=O)OC(C)O[N+](=O)[O-])ccc2c1 (stereo partly drawn) [I-D2-R1, (2S)-1-(nitrooxy)ethyl 2-(6-methoxynaphthalen-2-yl)propanoate]
Release of parent drug on incubation in SGF (in words) [1]: released quantitative amounts of the parent drug, naproxen
Prodrug Remaining (%) [1, 5]: 100.00%
Prodrug Remaining (%) [1, 6]: 84.68%
Prodrug Remaining (%) [1, 7]: 74.58%
Prodrug Remaining (%) [1, 8]: 32.79%
Prodrug Remaining (%) [1, 9]: 0.00%
Prodrug Remaining (%) [1, 10]: 0.00%
Prodrug Remaining (%) [1, 11]: 0.00%
Development of gastric ulcers or lesions [3]: none of the animals
melting point: 69 to 71 °C
Nap (Naproxen) formed on storage ([4]; 50° C., 0 h): NIL
Prodrug (area %) on storage ([4]; 50° C., 0 h): 99.12%
Nap (Naproxen) formed on storage ([4]; 50° C., 25 d): 0.33%
Prodrug (area %) on storage ([4]; 50° C., 25 d): 99.00%
Nap (Naproxen) formed on storage ([4]; RT, 0 h): NIL
Prodrug (area %) on storage ([4]; RT, 0 h): 99.12%
Nap (Naproxen) formed on storage ([4]; RT, 25 d): 0.2%
Prodrug (area %) on storage ([4]; RT, 25 d): 98.87%
Stability on storage (in words) ([4]; both at RT and at 50° C., up to 25 days): remained stable

CCCCC(OC(=O)[C@@H](C)c1ccc2cc(OC)ccc2c1)O[N+](=O)[O-] (stereo partly drawn) [I-D2-R4, (2S)-1-(nitrooxy)pentyl 2-(6-methoxynaphthalen-2-yl)propanoate]
Release of parent drug on incubation in SGF (in words) [1]: released appreciable amounts of the parent drug naproxen
Prodrug Remaining (%) [1, 5]: 100%
t1/2 of prodrug in SGF [1, 12]: >3 h
Prodrug Remaining (%) [1, 6]: 97.74%
Prodrug Remaining (%) [1, 7]: 96.18%
Prodrug Remaining (%) [1, 8]: 90.53%
Prodrug Remaining (%) [1, 9]: 88.87%
Prodrug Remaining (%) [1, 10]: 79.97%
Prodrug Remaining (%) [1, 11]: 71.04%

COc1ccc2cc([C@H](C)C(=O)OCCO[N+](=O)[O-])ccc2c1 [II-D2-X2, reference compound]
Fate of prodrug on incubation in SGF (in words) [1]: remained intact
Release of parent drug on incubation in SGF (in words) [1]: no release of parent drug naproxen
Prodrug Remaining (%) [1, 5]: 100.00%
Prodrug Remaining (%) [1, 6]: 99.68%
Prodrug Remaining (%) [1, 7]: 99.79%
Prodrug Remaining (%) [1, 8]: 99.75%
Prodrug Remaining (%) [1, 9]: 99.67%
Prodrug Remaining (%) [1, 10]: 99.39%
Prodrug Remaining (%) [1, 11]: 99.19%

CC(OC(=O)CCCc1ccc(N(CCCl)CCCl)cc1)O[N+](=O)[O-] (stereo not shown) [I-D3-R1, 1-(nitrooxy)ethyl 4-(4-(bis(2-chloroethyl)amino)phenyl)butanoate]
Prodrug Remaining (%) ([1]; SGF, 0 min): 92.12%
Prodrug Remaining (%) ([1]; SGF, 5 min): 20.49%
Prodrug Remaining (%) ([1]; SGF, 10 min): 13.84%
Prodrug Remaining (%) ([1]; SGF, 15 min): 8.59%
Prodrug Remaining (%) ([1]; SGF, 30 min): 0.00%
Prodrug Remaining (%) ([1]; SGF, 60 min): 0.00%
Prodrug Remaining (%) ([1]; SGF, 120 min): 0.00%
Prodrug Remaining (%) ([1]; SGF, 180 min): 0.00%
Release of parent drug on incubation in SGF (in words) ([1]; SGF, whole time course): quantitative release of the parent drug, chlorambucil; also recorded: released its parent drug chlorambucil quantitatively
half-life at 1 µM ([1]; simulated gi fluid, pH 1.2, SGF, read-out: t1/2 of prodrug in SGF): < 5 min

Source: patent publication US9844599B2, “Nitric oxide releasing produgs of therapeutic agents” (priority 2013, dated 2017)
